# Where “and” joins values, the source holds several entries; their conditions need not be identical. Equal entries are not always repeated.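 Tested at 5 concentrations; 48 h exposure; 96-well plates; endpoints linearly interpolated, else capped at highest concentration. GI50 = concentration required for 50% inhibition of growth. Definition used: TGI = concentration required for complete inhibition of growth.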
# Assays:
# Assay in all cases: DTP human tumour cell line panel, 48 h
# [1] = test system: CCRF-CEM leukemia
# [2] = test system: NCI-H226 lung
# [3] = test system: HT29 colon
# [4] = test system: HS 578T breast
# [5] = test system: COLO 205 colon
# [6] = test system: BT-549 breast
# [7] = test system: SF-295 CNS
# [8] = test system: UACC-257 melanoma
# [9] = test system: OVCAR-5 ovarian
# [10] = test system: OVCAR-8 ovarian
Compound,GI50 [1] [µM],TGI [1],GI50 [2] [µM],TGI [2],GI50 [3] [µM],TGI [3],GI50 [4] [µM],TGI [4],GI50 [5] [µM],TGI [5],GI50 [6] [µM],TGI [6],GI50 [7] [µM],TGI [7],GI50 [8] [µM],TGI [8] [µM],GI50 [9] [µM],TGI [9],GI50 [10] [µM],TGI [10]
CC(C)=CCC/C(C)=C/CC/C(C)=C/CSc1ccccc1C(=O)O,32.3,> 100 µM and 74.2 µM,19.9,46.2 µM and 44.1 µM,33.5,> 78.5 µM and 38.1 µM,33,> 100 µM and 44.5 µM,36.8,> 100 µM and 48.4 µM,19.4,40.4 µM and 32.2 µM,25.2,60.7 µM and 40 µM,30.5,> 100,23.1,62.6 µM and 36.3 µM,23.9,> 65.5 µM and 36.6 µM
S=C(Nc1ccc(-c2nc3ccccc3[nH]2)cc1)Nc1ccc(-c2nc3ccccc3[nH]2)cc1,92,> 100 µM,39.2,> 100 µM,> 100,> 100 µM,> 100,> 100 µM,> 100,> 100 µM,> 100,> 100 µM,48.4,> 100 µM,> 100,> 100,> 100,> 100 µM,59.6,> 100 µM
C/C1=C/C(=O)O[C@@H]2C[C@@H](CC[C@H](C)/C=C\C=C\CC1)O[C@@](O)([C@@H]1CSC(=O)N1)C2,–,> 10 µM,–,> 2.9 µM,–,> 10 µM,–,0.512 µM,–,0.36 µM,–,> 2.59 µM,–,> 8.93 µM,–,> 10,–,> 10 µM,–,> 10 µM
NCCCCCCCn1c2c(c3ccccc3c1=O)C(=O)c1ccccc1-2,0.648,2.19 µM,8.37,22.2 µM,1.29,2.6 µM,1.8,4.31 µM,2.07,5.15 µM,1.7,3.14 µM,1.74,4.28 µM,2.19,4.09,1.7,3.97 µM,1.69,4.82 µM
O=Nc1ccc(NO)c2ccccc12,8.04,58.9 µM,16.8,38.4 µM,5.96,24.7 µM,28.3,> 100 µM,14.7,29.3 µM,15.7,29.4 µM,14.8,28.6 µM,2.31,5.39,18.6,35.5 µM,3.24,14.6 µM
NCC1OC(n2cnc3c(N)ncnc32)CC1O (stereo not given),–,> 100 µM,–,> 100 µM,–,> 100 µM,–,> 100 µM,–,> 100 µM,–,> 100 µM,–,> 100 µM,–,> 100,–,> 100 µM,–,> 100 µM
CC1CCCC(C(O)CC2CC(=O)NC(=O)C2)C1O (stereo not given),–,> 100 µM,–,> 100 µM,–,> 100 µM,–,> 100 µM,–,> 100 µM,–,> 100 µM,–,> 100 µM,–,> 100,–,> 100 µM,–,> 100 µM
Cc1nnc(-c2cccc(-c3ccc(C(=O)NCC4CC4)cc3)c2)o1,> 25,> 25 µM,> 25,> 25 µM,> 25,> 25 µM,> 25,> 25 µM,> 25,> 25 µM,> 25,> 25 µM,> 25,> 25 µM,> 25,> 25,> 25,> 25 µM,> 25,> 25 µM
